The IC50 is the concentration that inhibits the measured activity by half. For orientation: melting point means the temperature, or range, at which the solid turns liquid.

In patent publication US7189754B2, “Pyrrolidine ester derivatives with oxytocin modulating activity” (Applied Research Systems ARS Holding NV, priority 2001, dated 2007) one finds IC50 and melting point data, which are given here for two compounds.

The target in series [1] is T1, human Oxytocin (hOT) receptor (Homo sapiens, UniProt P30559).
T1 construct: expressed in transfected cells; host or cells: HEK293EBNA
T1 sequence (P30559 1-389): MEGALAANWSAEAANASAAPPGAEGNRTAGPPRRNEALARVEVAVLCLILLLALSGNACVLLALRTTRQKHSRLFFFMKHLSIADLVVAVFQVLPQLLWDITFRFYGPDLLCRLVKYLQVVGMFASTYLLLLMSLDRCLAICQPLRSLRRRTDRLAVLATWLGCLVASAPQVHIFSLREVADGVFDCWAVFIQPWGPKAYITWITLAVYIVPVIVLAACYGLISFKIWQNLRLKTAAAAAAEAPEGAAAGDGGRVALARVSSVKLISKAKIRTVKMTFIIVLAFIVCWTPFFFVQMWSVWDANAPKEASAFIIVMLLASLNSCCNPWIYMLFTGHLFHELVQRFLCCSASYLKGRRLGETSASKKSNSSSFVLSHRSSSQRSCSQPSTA
In words: In vitro competition binding assay on hOT receptor with scintillation proximity assay ([125I]-OVTA). As to conditions: HEK293EBNA membranes expressing hOT receptor, 0.2 nM [125I]-OVTA, SPA; read-out: Binding affinity human OT-R IC50. How it is done: a) In Vitro Competition Binding Assay on hOT Receptor with Scintillation Proximity Assay (see Cook, N. D. et al. Pharmaceutical Manufacturing International 1992; p.49–53)
This assay allows to determine the affinity of the test compounds for the human Oxytocin (hOT) receptor. Membranes from HEK293EBNA (cells expressing the hOT receptor) were suspended in buffer containing 50 mM Tris-HCl, pH 7.4, 5 mM MgCl2 and 0.1% BSA (w/v). The membranes (2–4 μg) were mixed with 0.1 mg SPA bead coated with wheat-germ aglutinin (WGA-PVT-Polyethylene Imine beads from Amersham) and 0.2 nM of the radiolabelled [^125I]-OVTA (OVTA being Ornithin Vasoactive, an analogue of OT for competitive binding experiments). Non-specific binding was determined in the presence of 1 μM Oxytocin. The total assay volume was 100 μl. The plates (Corning® NBS plate) were incubated at room temperature for 30 min and counted on a Mibrobeta® plate scintillation counter. Competitive binding was performed in presence of compounds of formula (I) at the following concentrations: 30 μM, 10 μM, 1 μM, 300 nM, 100 nM, 10 nM, 1 nM, 100 pM, 10 pM. The competitive binding data were analysed using the iterative, nonlinear, curve-fitting program, “Prism” (GraphPad Software, Inc).
The ability of the pyrrolidine derivatives of formula (I) to inhibit the binding of ^125I-OVTA to the OT-receptor was assessed using the above described in vitro biological assay. Representative values for some example compounds are given in Table 1, where the binding affinity of the compounds is expressed by the IC50 (μM) which is the concentration upon which 50% inhibition of OT-R is achieved. From these values, it can be derived that said test compounds according to formula (I) do show a significant binding to the oxytocin receptor.
In general terms: SPA uses beads or plates that emit light when radiolabelled molecules are held near them.

The target of another series is T2, ratOT-R (Rattus norvegicus, UniProt P70536).
T2 construct: expressed in transfected cells; host or cells: HEK/EBNA
T2 sequence (P70536 1-388): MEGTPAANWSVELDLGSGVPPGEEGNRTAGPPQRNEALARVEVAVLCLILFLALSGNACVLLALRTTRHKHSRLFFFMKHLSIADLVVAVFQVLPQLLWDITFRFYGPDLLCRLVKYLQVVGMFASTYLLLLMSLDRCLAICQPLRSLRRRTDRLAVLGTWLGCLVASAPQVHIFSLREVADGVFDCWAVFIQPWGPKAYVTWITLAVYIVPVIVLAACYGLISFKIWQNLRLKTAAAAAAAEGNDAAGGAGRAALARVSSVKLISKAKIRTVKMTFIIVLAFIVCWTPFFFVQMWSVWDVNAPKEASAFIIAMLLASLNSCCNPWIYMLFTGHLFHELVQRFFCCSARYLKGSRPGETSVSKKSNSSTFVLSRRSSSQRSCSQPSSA
The series can be described thus: Functional assay No. 2: inhibition of IP3-synthesis in HEK/EBNA-OTR cells. The format is cell-based. As to conditions: oxytocin 10 nM, [3H]-inositol. The text has this:
c) Functional Assay No. 2: Inhibition of IP3 (Inositol Tri-Phosphate)-Synthesis in HEK/EBNA-OTR cells
The interaction of OT on the OT-receptor leads to the IP3 synthesis, IP3 being a second messenger for the Ca^2+ release from sarcoplasmic reticulum, involved in the uterine contraction triggering process (see Mitchell, B. F. and Schmid, B. J. Soc. Gynecol. Invest. 2001, 8,122–33).
This assay can be used to show the inhibition of the OT/OT-R mediated IP3 synthesis by using test compounds of formula (I).
Stimulation of the cells: HEK/EBNA OTR (rat or human) cells are plated out-into costar 12-well plates, and equilibrated for 15–24 h with 4 μCi/ml radiolabelled [^3H]-Inositol with 1% FCS (0.5 ml/well) and without inositol supplement. The medium containing the label is aspirated. […]
The amount of the radiolabelled IP3 may be determined through the ensuing work-up. […]
Elution of total IP's: Elution is achieved using 3 ml 1M ammonium formate/0.1M formic acid. […] The amount of [^3H]-IP3 is determined by a scintillating counter.
The ability of compounds of formula(I) to effectively antagonize oxytocin-induced IP3synthesis mediated by the oxytocin receptor, can be assessed using the above described in vitro biological assay.

Take `CO/N=C1\C[C@@H](C(=O)OC)N(C(=O)c2ccc(-c3ccccc3C)cc2)C1` [Methyl (2S,4E)-4-(methoxyimino)-1-[(2′-methyl[1,1′-biphenyl]-4-yl)carbonyl]-2-pyrrolidinecarboxylate]: the IC50 in series [1] is 36 nM; against ratOT-R, 77 nM.
In turn, `CO/N=C1/C[C@@H](C(=O)OC)N(C(=O)c2ccc(-c3ccccc3C)cc2)C1` [Methyl (2S,4Z)-4-(methoxyimino)-1-[(2′-methyl[1,1′-biphenyl]-4-yl)carbonyl]-2-pyrrolidinecarboxylate] registered a melting point of 40 °C. In addition, the IC50 in series [1] worked out at 12 nM. This compound returned an IC50 against ratOT-R of 23 nM.
